IC50 data for 39 compounds are collected here from patent US8895585B2, “Nicotinamide derivative or salt thereof” (FUJIFILM Corporation, priority 2010, dated 2014).

One experiment addresses T1, glutathione S-transferase (GST)-fused full-length human Syk protein (Homo sapiens, UniProt P43405).
T1 construct: (GST)-fused full-length human Syk protein; GST (glutathione S-transferase); purchased Carna Biosciences
Kind of experiment: Syk enzyme assay. It counts as biochemical. The settings on record: Syk enzyme assay, Test Example 1; read-out: IC50 of Syk-inhibitory activity. The procedure, abridged: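 Baculovirus-expressed enzyme (1.2 ng) was preincubated with compound in HEPES pH 7.0/MgCl2/DTT buffer, 2 min shaking then 13 min at room temperature. Biotin-EDPDYEWPSA-NH2 (0.4 μM final) and ATP (27 μM final) were added for 40 min at room temperature. EDTA stop, streptavidin-XL/PT66-K TR-FRET at 615/665 nm gave IC50.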
For `NC(=O)c1cc(F)c(N[C@@H]2CCCC[C@@H]2N)nc1Nc1cnc(O)c(-n2nccn2)c1` [Example 006-504, 6-(((1R,2S)-2-aminocyclohexyl)amino)-5-fluoro-2-((6-hydroxy-5-(2H-1,2,3-triazol-2-yl)pyridin-3-yl)amino)nicotinamide], the IC50 – broadly, the point on the concentration scale where inhibition reaches its midpoint – lay within 0.05 to 0.1 µM.

On to `CC[C@@H](Nc1nc(Nc2ccc3c(cnn3CC(F)F)c2)c(C(N)=O)cc1F)[C@H](C)N` [Example 006-423, 6-(((2S,3R)-2-aminopentan-3-yl)amino)-2-((1-(2,2-difluoroethyl)-1H-indazol-5-yl)amino)-5-fluoronicotinamide], for which the half-maximal inhibitory concentration (IC50) lay in the range of 0.01 to 0.05 µM.

Take `COc1cc(-c2cncc(Nc3nc(N[C@@H]4CCCC[C@@H]4N)c(F)cc3C(N)=O)c2)ccn1` (relative stereo) [Example 004-232, 6-((cis-2-aminocyclohexyl)amino)-5-fluoro-2-((2′-methoxy-[3,4′-bipyridine]-5-yl)amino)nicotinamide]: the IC50 was less than 0.01 µM.

Take `COc1ccccc1-c1cc(Nc2nc(NC3CCCCC3N)c(F)cc2C(N)=O)ccn1` (stereo not drawn) [Example 002-132]: the IC50 was 0.01 to 0.05 µM.

As for `COc1cc(-c2cncc(Nc3nc(NC4CCCCC4N)c(F)cc3C(N)=O)c2)cc(OC)c1OC` (stereo not drawn) [Example 002-171], the IC50 is 0.05 to 0.1 µM.

`COc1ncc(Nc2nc(NC3CCCCC3N)c(F)cc2C(N)=O)cc1C` (stereo not drawn) [Example 002-152]: the IC50 was in the range of 0.01 to 0.05 µM.

Consider `CN(C)C(=O)c1cc(Nc2nc(NC3CCCC[C@@H]3N)c(F)cc2C(N)=O)ccn1` (stereo partly drawn) [Example 029-014], for which the IC50 is 0.05 to 0.1 µM.

Consider `COc1cc(Nc2nc(N[C@H](c3ccccc3)[C@@H](N)c3ccccc3)c(F)cc2C(N)=O)cc(OC)c1` (racemic) [Example 006-137, 6-(((1R,2S)-2-amino-1,2-diphenylethyl)amino)-2-((3,5-dimethoxyphenyl)amino)-5-fluoronicotinamide 6-(((1S,2R)-2-amino-1,2-diphenylethyl)amino)-2-((3,5-dimethoxyphenyl)amino)-5-fluoronicotinamide], for which the IC50 lay within 0.01 to 0.05 µM.

Turning to `NC(=O)c1cc(F)c(N[C@@H]2CCCC[C@@H]2N)nc1Nc1cnc2c(NS(=O)(=O)c3cccnc3)cccc2c1` (relative stereo) [Example 41-8, 6-(cis-2-aminocyclohexylamino)-5-fluoro-2-((8-(pyridin-3-sulphonamide)quinolin-3-yl)amino)nicotinamide], the IC50 fell in the range of 0.01 to 0.05 µM.

`NC(=O)c1cc(F)c(N[C@@H]2CCCC[C@@H]2N)nc1Nc1cnc(N2CCOCC2)c(-n2nccn2)c1` [Example 006-533, 6-(((1R,2S)-2-aminocyclohexyl)amino)-5-fluoro-2-((6-morpholino-5-(2H-1,2,3-triazol-2-yl)pyridin-3-yl)amino)nicotinamide]: the IC50 lay in the range of 0.01 to 0.05 µM.

With `CCOc1ccccc1C(=O)Nc1cncc(Nc2nc(NC3CCCCC3N)c(F)cc2C(N)=O)c1` (stereo not drawn) [Example 027-025], the IC50 is 0.01 to 0.05 µM.

Turning to `NC(=O)c1cc(F)c(N[C@@H]2CCCC[C@@H]2N)nc1Nc1ccc2nc(-n3cccn3)ccc2c1` (relative stereo) [Example 004-203, 2-((2-(1H-pyrazol-1-yl)quinolin-6-yl)amino)-6-(cis-2-aminocyclohexylamino)-5-fluoronicotinamide], the IC50 is less than 0.01 µM.

For `COc1ccc(-c2cc(Nc3nc(N[C@@H](CN)CC(C)C)c(F)cc3C(N)=O)ccn2)cc1` [Example 006-326, (R)-6-((1-amino-4-methylpentan-2-yl)amino)-5-fluoro-2-((2-(4-methoxyphenyl)pyridin-4-yl)amino)nicotinamide], the IC50 is less than 0.01 µM.

As for `CC[C@@H](Nc1nc(Nc2cncc(-c3cc(OC)ccc3F)c2)c(C(N)=O)cc1F)[C@H](C)N` [Example 006-280, 6-(((2S,3R)-2-aminopentan-3-yl)amino)-5-fluoro-2-((5-(2-fluoro-5-methoxyphenyl)pyridin-3-yl)amino)nicotinamide], the IC50 was less than 0.01 µM.

Consider `NC(=O)c1cc(F)c(NC2CCCCC2N)nc1Nc1cc(-c2ccccc2)ncc1F` (stereo not drawn) [Example 002-168], for which the IC50 was in the range of 0.01 to 0.05 µM.

As to `CC(C)C[C@H](CN)Nc1nc(Nc2ccc(N3CCOCC3)nc2)c(C(N)=O)cc1F` [Example 006-191, (R)-6-((1-amino-4-methylpentan-2-yl)amino)-5-fluoro-2-((6-morpholinopyridin-3-yl)amino)nicotinamide], the IC50 lay within 0.01 to 0.05 µM.

With `C[C@H](N)[C@@H](CC1CC1)Nc1nc(Nc2cccc3c2c(F)nn3CC(F)F)c(C(N)=O)cc1F` [Example 006-492, 6-(((2R,3S)-3-amino-1-cyclopropylbutan-2-yl)amino)-2-((1-(2,2-difluoroethyl)-3-fluoro-1H-indazol-4-yl)amino)-5-fluoronicotinamide], the IC50 was 0.01 to 0.05 µM.

`NC(=O)c1cc(F)c(N[C@@H]2CCCC[C@@H]2N)nc1Nc1ccc2nc(-n3cccn3)cnc2c1` (relative stereo) [Example 004-208, 2-((2-(1H-pyrazol-1-yl)quinoxalin-6-yl)amino)-6-(cis-2-aminocyclohexylamino)-5-fluoronicotinamide]: the IC50 was less than 0.01 µM.

For the compound `NC(=O)c1cc(F)c(NCc2ccccn2)nc1Nc1ccc2ncccc2c1` [Example 012-016], the IC50 was 0.1 to 1 µM.

Turning to `NC(=O)c1cc(F)c(NC(Cc2ccc(F)cc2)C(N)=O)nc1Nc1ccc2ncccc2c1` (stereo not drawn) [Example 012-033], the IC50 was in the range of 0.01 to 0.05 µM.

Turning to `CCn1ncc2ccc(Nc3nc(N[C@H](CC4CC4)[C@H](C)N)c(F)cc3C(N)=O)cc21` [Example 006-436], the IC50 was in the range of 0.01 to 0.05 µM.

Regarding `COC(=O)c1cc(Nc2nc(N[C@@H]3CCCC[C@@H]3N)c(F)cc2C(N)=O)cnc1N` (relative stereo) [Example 004-142, methyl 2-amino-5-((6-(cis-2-aminocyclohexylamino)-3-carbamoyl-5-fluoropyridin-2-yl)amino)nicotinate], the IC50 was in the range of 0.01 to 0.05 µM.

For the compound `COc1cccc(-c2cc(Nc3nc(N[C@@H](CN)CC(C)C)c(F)cc3C(N)=O)ccn2)c1` [Example 006-325, (R)-6-((1-amino-4-methylpentan-2-yl)amino)-5-fluoro-2-((2-(3-methoxyphenyl)pyridin-4-yl)amino)nicotinamide], the IC50 is less than 0.01 µM.

For the compound `Cc1cc(Nc2nc(N[C@H](CCCN(C)C)[C@H](C)N)c(F)cc2C(N)=O)cnc1C` [Example 046-000], the IC50 was 0.1 to 1 µM.

For `COc1cc(Nc2nc(NC3CN(C(=O)OCc4ccccc4)CCC3N)c(F)cc2C(N)=O)ccn1` [Example 006-529, (3R,4S)-benzyl 4-amino-3-((5-carbamoyl-3-fluoro-6-((2-methoxypyridin-4-yl)amino)pyridin-2-yl)amino)piperidine-1-carboxylate) and (3S,4R)-benzyl-4-amino-3-((5-carbamoyl-3-fluoro-6-((2-methoxypyridin-4-yl)amino)pyridin-2-yl)amino)piperidine-1-carboxylate(=1:1)], the IC50 is 0.1 to 1 µM.

Turning to `NC(=O)c1cc(F)c(N[C@@H]2CCCC[C@@H]2N)nc1Nc1ccc(-n2ccnc2)nc1` [Example 006-535, 2-((6-(1H-imidazole-1-yl)pyridin-3-yl)amino)-6-(((1R,2S)-2-aminocyclohexyl)amino)-5-fluoronicotinamide], the IC50 is 0.05 to 0.1 µM.

On to `NC(=O)c1cc(F)c(N[C@@H]2CCCC[C@@H]2N)nc1Nc1ccn2cnnc2c1` [Example 004-212], for which the IC50 fell in the range of 0.01 to 0.05 µM.

As for `CC1CN(c2ccc(Nc3nc(NC4CCCCC4N)c(F)cc3C(N)=O)cn2)CC(C)O1` (stereo not drawn) [Example 002-127], the IC50 fell in the range of 0.01 to 0.05 µM.

As for `COc1ccc(S(=O)(=O)Nc2cccc3cc(Nc4nc(N[C@@H]5CCCC[C@@H]5N)c(F)cc4C(N)=O)cnc23)cc1` (relative stereo) [Example 41-5, 6-(cis-2-aminocyclohexylamino)-5-fluoro-2-((8-(4-methoxyphenylsulphonamide)quinolin-3-yl)amino)nicotinamide], the IC50 was 0.05 to 0.1 µM.

As for `COc1cc(Nc2nc(NC(C(N)=O)c3ccccc3)c(F)cc2C(N)=O)cc(OC)c1` (stereo not drawn) [Example 016-009], the IC50 lay within 0.01 to 0.05 µM.

Take `COCCNc1ccc(Nc2nc(NC3CCCCC3N)c(F)cc2C(N)=O)cn1` (stereo not drawn) [Example 002-076]: the IC50 was in the range of 0.05 to 0.1 µM.

As for `NCCNc1nc(Nc2cc(Cl)cc(Cl)c2)c(C(N)=O)cc1F` [Example 006-007, 6-((2-aminoethyl)amino)-2-((3,5-dichlorophenyl)amino)-5-fluoro-nicotinamide], the half-maximal inhibitory concentration (IC50) lay within 0.05 to 0.1 µM.

Turning to `COC(C)CCOc1nccc2c(Nc3nc(N[C@@H]4CCCC[C@@H]4N)c(F)cc3C(N)=O)cccc12` (relative stereo) [Example 004-157, 6-(cis-2-aminocyclohexylamino)-5-fluoro-2-((1-(3-methoxybutoxy)isoquinolin-5-yl)amino)-nicotinamide], the IC50 was 0.01 to 0.05 µM.

As for `NC(=O)c1cc(F)c(NC2CCCCC2N)nc1Nc1ccnc(C(F)(F)F)c1` (stereo not drawn) [Example 002-050], the IC50 is 0.01 to 0.05 µM.

`CCNc1nc(Nc2ccc3ncsc3c2)c(C(N)=O)cc1F` [Example 006-042, 2-((benzo[d]thiazol-6-yl)amino)-6-(ethylamino)-5-fluoronicotinamide]: the IC50 was 0.1 to 1 µM.

For `NC(=O)c1cc(F)c(N[C@H](Cc2ccccc2)C(N)=O)nc1Nc1ccnc2[nH]ccc12` [Example 004-063], the half-maximal inhibitory concentration (IC50) is less than 0.01 µM.

Consider `COCCOc1cnc2cc(Nc3nc(N[C@@H]4CCCC[C@@H]4N)c(F)cc3C(N)=O)ccc2n1` (relative stereo) [Example 004-178, 6-(cis-2-aminocyclohexylamino)-5-fluoro-2-((2-(2-methoxyethoxy)quinoxalin-6-yl)amino)-nicotinamide], for which the IC50 lay within 0.01 to 0.05 µM.

Regarding `COc1cc(Nc2nc(N[C@H](C(N)=O)c3ccccc3)c(F)cc2C(N)=O)cc(OC)c1` [Example 016-018], the IC50 was 0.1 to 1 µM.

The experiment is the same for the next values; noted with them: read-out: Syk-inhibitory activity (IC50).
In the case of `NC(=O)c1cc(F)c(N[C@@H]2CCCC[C@@H]2N)nc1Nc1ccc(-c2ccccc2)nc1` (relative stereo) [Example 2-9, 6-(cis-2-aminocyclohexylamino)-5-fluoro-2-((6-phenylpyridin-3-yl)amino)nicotinamide], the IC50 was not above 1 µM.
